Target: T1, human α7 nicotinic acetylcholine receptor (α7 nAChR) (Homo sapiens, UniProt P36544)
T1 construct: gene CHRNA7; human α7 nAChR transfected in GH4C1 cells
Test: radioligand competition with on GH4C1 cells; agonism also shown by Ca2+ imaging in Neuro2a cells with PNU120596 (EC50 […])
Format: cell-based

T1 sequence (P36544 23-502): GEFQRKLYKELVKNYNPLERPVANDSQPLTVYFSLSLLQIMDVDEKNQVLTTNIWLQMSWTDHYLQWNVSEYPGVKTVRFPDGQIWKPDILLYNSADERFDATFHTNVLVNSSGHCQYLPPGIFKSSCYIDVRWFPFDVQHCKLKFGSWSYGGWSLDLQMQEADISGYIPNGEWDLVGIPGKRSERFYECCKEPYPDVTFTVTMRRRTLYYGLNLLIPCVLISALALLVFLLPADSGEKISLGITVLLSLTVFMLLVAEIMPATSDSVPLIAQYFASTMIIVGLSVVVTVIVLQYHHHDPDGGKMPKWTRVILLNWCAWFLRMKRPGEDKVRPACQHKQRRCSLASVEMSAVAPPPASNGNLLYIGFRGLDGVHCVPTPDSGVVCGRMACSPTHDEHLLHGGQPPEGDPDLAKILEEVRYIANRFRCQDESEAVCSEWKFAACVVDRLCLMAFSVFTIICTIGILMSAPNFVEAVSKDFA

Question: How did the IC50 turn out when `C[N+](C)(C)[C@@H](Cc1c[nH]c2cc(Br)ccc12)C(=O)[O-]` [6-BHP, 6-Bromohypaphorine] was run?
Answer: 23 ± 1 µM

— publication PMC4377982 (Marine Drugs, 2015)
